Test results: patent publication US20250011404A1, “TARGETING APOE ENHANCES T-CELL KILLING IN CANCER IMMUNOTHERAPY” (Children's National Medical Center, priority 2021, published 2025)
“Also recorded” adds a separate entry of the source.

Test system: vaccinated splenocytes from lrp8−/− mice
Assay: Cytokine production of vaccinated splenocytes from lrp8−/− mice co-cultured with immunogenic B16 cells (ELISA, multiplex)
Assay type: cell-based, mouse
Description: To functionally define the role of the lrp8 receptor engagement in apoE suppression, vaccinated splenocytes from lrp8^−/− mice were isolated. These cells were co-cultured with BET/JQ1 treated (Myc-suppressed) immunogenic B16 cells for 48 hr with or without exposure to the apoE mimetic COG133. […] In addition, using ProcartaPlex multiplex immunoassay, we also quantified other cytokines/chemokines produced in the reaction. […] These included effector function: IFNγ; stimulator function, IL18, GM-CSF, G-CSF; inflammatory cytokines: IL2, IL3, IL4, IL5, IL9, IL13, IL23, IL12p70; chemo attractant factors: MCP-1, MCP3, MIP-1α, CCL-5 (Rantes); and regulatory factors: IL6, IL-10 (P<0.05). […] Cell culture supernatant was collected after centrifuge at 1,200 rpm for 10 min at 4° C. The concentrations of the following immune molecules were determined using the mouse Cytokine & Chemokine 36-plex ProcartaPlex Panel, a magnetic bead-based multiplex immunoassay (Thermo Scientific) following our previous protocol(19). Briefly, cell culture supernatant samples were mixed with antibody-linked polystyrene beads on a 96-well plate and incubated at room temperature (RT) for 2 h on an orbital shaker at 500 rpm. After washing, plates were incubated with biotinylated detection antibody for 30 min at RT. Plates were then washed twice and then labeled beads were resuspended in streptavidin-PE. Each sample was measured in duplicate along with standards (8-point dilutions) and the buffer control. Plates were read using a Luminex Bio-plex 200 system (Bio-Rad Corp.) for quantitative analysis. WT and apoE^−/− mice or WT and lrp8^−/− mice, were inoculated with either WT B16 or apoE^−/− B16 cells, with anti-CTLA4 antibody on day 0. These vaccinated splenocytes (VS) were harvested on day 7 and co-cultured with either WT B16 or apoE^−/− B16 cells for 48 hr, following which IFNγ levels in media were compared with ELISA assay. […] Readings were measured at 450 nm using the EnSpire 2300 Multilabel plate reader (Perkin Elmer, Waltham, Massachusetts, US).

COG133: a fragment of apoE peptide, which competes with the apoE holoprotein for binding the LDL receptors and acts as an apoE mimetic
detectable cytokines with pattern similar to IFNγ: inhibition in WT mice, reversed in lrp8−/− splenocytes (ProcartaPlex multiplex, with or without COG133, 48 hr): Seventeen out of 27 | IFNγ production from lrp8−/− vaccinated splenocytes (co-culture with BET/JQ1 treated B16 cells 48 hr, with COG133): inhibitory effect was lacking; also recorded: suppression did not occur | IL-13, IL-4, IL22, IL18, MCP-1, RANTES and Gro-α, lrp8−/− vaccinated splenocytes (co-culture with Myc-inhibited B16 cells 48 hr, multiplex immunoassay (FIG. 18)): suppressive effect is diminished
